Source: patent US20140309109A1, “N-Thio-anthranilamide compounds and their use as pesticides” (BASF SE, priority 2011, published 2014)

Assays:
Assay type in all cases: in vivo
[1] = system: Tobacco Budworm (Heliothis virescens); test: Tobacco budworm I (B.7a) cotton plant spray test; details: 96 h, 4 days after treatment, larvae on sprayed cotton plants (B.7a), read-out: mortality in comparison with untreated controls
Procedure: B.7a Tobacco Budworm (Heliothis virescens) I
(§1) The active compounds were formulated in cyclohexanone as a 10,000 ppm solution supplied in tubes. The tubes were inserted into an automated electrostatic sprayer equipped with an atomizing nozzle and they served as stock solutions for which lower dilutions were made in 50% acetone:50% water (v/v). A nonionic surfactant (Kinetic®) was included in the solution at a volume of 0.01% (v/v).
(§2) Cotton plants were grown 2 plants to a pot and selected for treatment at the cotyledon stage. Test solutions were sprayed onto the foliage by an automated electrostatic plant sprayer equipped with an atomizing spray nozzle. The plants were dried in the sprayer fume hood and then removed from the sprayer. Each pot was placed into perforated plastic bags with a zip closure. About 10 to 11 budworm larvae were placed into the bag and the bags zipped closed. Test plants were maintained in a growth room at about 25° C. and about 20-40% relative humidity for 4 days, avoiding direct exposure to fluorescent light (24 hour photoperiod) to prevent trapping of heat inside the bags. Mortality and reduced feeding were assessed 4 days after treatment, compared to untreated control plants.

[2] = system: Boll Weevil (Anthonomus grandis); test: Boll weevil insect diet microtiter test; details: 120 h, 5 days, eggs on sprayed insect diet, read-out: mortality (egg and larval) in comparison with untreated controls
Procedure: B.8 Boll Weevil (Anthonomus grandis)
For evaluating control of boll weevil (Anthonomus grandis) the test unit consisted of 24-well-microtiter plates containing an insect diet and 20-30 A. grandis eggs.
The compounds were formulated using a solution containing 75% v/v water and 25% v/v DMSO. Different concentrations of formulated compounds were sprayed onto the insect diet at 20 μl, using a custom built micro atomizer, at two replications.
After application, microtiter plates were incubated at about 23±1° C. and about 50±5% relative humidity for 5 days. Egg and larval mortality was then visually assessed.

[3] = system: Orchid Thrips (Dichromothrips corbetti); test: Orchid thrips floral-immersion test; details: 72 hours after treatment, adult thrips on dipped orchid flowers, read-out: mortality in comparison with untreated controls
Procedure: B.3 Orchid Thrips (Dichromothrips corbetti)
Dichromothrips corbetti adults used for bioassay were obtained from a colony maintained continuously under laboratory conditions. For testing purposes, the test compound is diluted in a 1:1 mixture of acetone:water (vol:vol), plus 0.01% vol/vol Alkamuls® EL 620 surfactant.
Thrips potency of each compound was evaluated by using a floral-immersion technique. Plastic petri dishes were used as test arenas. All petals of individual, intact orchid flowers were dipped into treatment solution and allowed to dry. Treated flowers were placed into individual petri dishes along with about 20 adult thrips. The petri dishes were then covered with lids. All test arenas were held under continuous light and a temperature of about 28° C. for duration of the assay. After 3 days, the numbers of live thrips were counted on each flower, and along inner walls of each petri dish. The percent mortality was recorded 72 hours after treatment.

[4] = system: Southern Armyworm (Spodoptera eridania); test: Southern armyworm lima bean foliar spray test; details: 96 h, 4 days after treatment, larvae on sprayed lima bean plants, read-out: mortality in comparison with untreated controls
Procedure: B.5 Southern Armyworm (Spodoptera eridania)
as §1
Lima bean plants (variety Sieva) were grown 2 plants to a pot and selected for treatment at the 1st true leaf stage. Test solutions were sprayed onto the foliage by an automated electrostatic plant sprayer equipped with an atomizing spray nozzle. The plants were dried in the sprayer fume hood and then removed from the sprayer. Each pot was placed into perforated plastic bags with a zip closure. About 10 to 11 armyworm larvae were placed into the bag and the bags zipped closed. Test plants were maintained in a growth room at about 25° C. and about 20-40% relative humidity for 4 days, avoiding direct exposure to fluorescent light (24 hour photoperiod) to prevent trapping of heat inside the bags. Mortality and reduced feeding were assessed 4 days after treatment, compared to untreated control plants.

[5] = system: Tobacco Budworm (Heliothis virescens); test: Tobacco budworm I (B.7b) cotton plant spray test; details: 96 h, 4 days after treatment, larvae on sprayed cotton plants (B.7b), read-out: mortality in comparison with untreated controls
Procedure: B.7b Tobacco Budworm (Heliothis virescens) I
as §1, §2

[6] = system: Colorado Potato Beetle (Leptinotarsa decemlineata); test: Colorado potato beetle eggplant foliage spray test; details: foliar, 96 h, 4 days after treatment, larvae on sprayed eggplant foliage, read-out: mortality in comparison with untreated controls
Procedure: B.9 Colorado Potato Beetle (Leptinotarsa decemlineata)
as §1
Eggplants were grown 2 plants to a pot and were selected for treatment at the 1st true leaf stage. Test solutions were sprayed onto the foliage by an automated electrostatic plant sprayer equipped with an atomizing spray nozzle. The plants were dried in the sprayer fume hood and then removed from the sprayer. The treated foliage was then cut and removed from the pot and placed in a Petri dish lined with moistened filter pa-per. Five beetle larvae were introduced into each Petri dish and the dish was covered by a Petri dish lid. Petri dishes were maintained in a growth room at about 25° C. and about 20-40% relative humidity for 4 days, avoiding direct exposure to fluorescent light (24 hour photoperiod) to prevent trapping of heat inside the dishes. Mortality and reduced feeding were assessed 4 days after treatment, compared to untreated control plants.

[7] = system: Diamond Back Moth (Plutella xylostella); test: Diamond back moth cabbage leaf dip test; details: foliar, 72 hours after treatment, 3rd instar larvae on dipped cabbage leaves, read-out: mortality in comparison with untreated controls
Procedure: B.2 Diamond Back Moth (Plutella xylostella)
The active compound is dissolved at the desired concentration in a mixture of 1:1 (vol:vol) distilled water:aceteone. Surfactant (Alkamuls® EL 620) is added at a rate of 0.1% (vol/vol).The test solution is prepared at the day of use.
Leaves of cabbage were dipped in test solution and air-dried. Treated leaves were placed in petri dish eslined with moist filter paper and inoculated with ten 3rd instar larvae. Mortality was recorded 72 hours after treatment. Feeding damages were also recorded using a scale of 0-100%.

[8] = system: Cowpea Aphid (Aphis craccivora); test: Cowpea aphid spray test on potted cowpea plants; details: assessed after 72 hours, sprayed cowpea plants, read-out: mortality in comparison with untreated controls
Procedure: B.1 Cowpea Aphid (Aphis craccivora)
The active compound is dissolved at the desired concentration in a mixture of 1:1 (vol:vol) distilled water:acetone. Surfactant (Alkamuls® EL 620) is added at a rate of 0.1% (vol/vol). The test solution is prepared at the day of use.
Potted cowpea plants were colonized with approximately 50-100 aphids of various stages by manually transferring a leaf tissue cut from infested plant 24 hours before application. Plants were sprayed after the pest population has been recorded. Treated plants are maintained on light carts at about 28° C. Percent mortality was assessed after 72 hours

[9] = system: Vetch Aphid (Megoura viciae); test: Vetch aphid broad bean leaf disk microtiter test; details: foliar, 120 h, 5 days, adult aphids on sprayed broad bean leaf disks, read-out: mortality in comparison with untreated controls
Procedure: B.6 Vetch Aphid (Megoura viciae)
For evaluating control of vetch aphid (Megoura viciae) through contact or systemic means the test unit consisted of 24-well-microtiter plates containing broad bean leaf disks.
The compounds were formulated using a solution containing 75% v/v water and 25% v/v DMSO. Different concentrations of formulated compounds were sprayed onto the leaf disks at 2.5 μl, using a custom built micro atomizer, at two replications.
After application, the leaf disks were air-dried and 5-8 adult aphids placed on the leaf disks inside the microtiter plate wells. The aphids were then allowed to suck on the treated leaf disks and incubated at about 23±1° C. and about 50±5% relative humidity for 5 days. Aphid mortality and fecundity was then visually assessed.

CCS(CC1CC1)=NC(=O)c1cc(Cl)cc(C)c1NC(=O)c1cc(C(F)(F)F)nn1-c1ncccc1Cl (stereo not drawn) [Compound 1, 2-(3-chloro-2-pyridyl)-N-[2-methyl-4-chloro-6-[(cyclopropylmethyl-ethyl-λ^4-sulfanylidene)carbamoyl]phenyl]-5-(trifluoromethyl)pyrazole-3-carboxamide]
≥ 75%: mortality at 2500 ppm [1] | mortality at 2500 ppm [2] | mortality at 300 ppm [3] | mortality at 1 ppm [4] | mortality at 10 ppm [5] | mortality at 10 ppm [6] | mortality at 300 ppm [7] | mortality at 300 ppm [8] | mortality at 2500 ppm [9]
